Assays:
[1] = test system: differentiated mouse 3T3-L1 cells; assay: Mouse adipocyte lipolysis assay (Lipolysis Assay Kit, ZenBio); type: cell-based; settings: 24 hours post-treatment, 3T3-L1 adipocytes
Procedure: Mouse 3T3-L1 cells were obtained from ATCC and cultured in Dulbecco's Modified Eagle's medium (DMEM) containing 10% newborn calf serum (NCS) and penicillin/streptomycin(P/S) at 37° C. in an incubator with 5% CO2. Once the cells became confluent, they were seeded into a tissue culture treated 96 well plate. Then, differentiation was initiated by using DMEM containing 10% fetal bovine serum, P/S, IBMX, dexamethasone, and insulin. After 14 days of differentiation, cells were treated with compounds of interest. After 24 hours post-treatment, the cell viability was assessed using CellTiter-Glo Luminescent Cell Viability Assay from Promega, and lipolysis was determined using Lipolysis Assay Kit from ZenBio. […] Table 1 lists the compounds that reduced the release of free fatty acids and glycerol (+, ++, or +++). The lipolytic rate of white adipose tissue is associated with metabolic dysfunction including insulin resistance and liver steatosis. Compounds that lower lipolysis of adipocytes may improve metabolic function including improving insulin sensitivity and reducing liver steatosis, thus improving outcomes in subjects with diabetes mellitus (e.g., prediabetes or type II diabetes), obesity, and hyperlipidemia.

mouse myocyte = assay: Mouse myocyte lipolysis assay; type: cell-based; settings: differentiated myocytes
Procedure: Cells were obtained from ATCC and cultured in Dulbecco's Modified Eagle's medium (DMEM) containing 20% fetal bovine serum and 1% penicillin/streptomycin at 37° C. in an incubator with 5% CO2. Once the cells became confluent, they were seeded into a tissue culture treated 96 well plate. The next day, the medium containing DMEM with 2% equine serum was used to start differentiation. Table 2 lists the tested compounds including those that reduced the release of glycerol (+, ++, or +++). The lipolytic rate of muscle triglycerides is associated with metabolic dysfunction including insulin resistance and liver steatosis. Compounds that lower lipolysis of adipocytes may improve metabolic function including improving insulin sensitivity and reducing liver steatosis, thus improving outcomes in patients with diabetes mellitus (e.g., prediabetes or type II diabetes) obesity, and hyperlipidemia.

[2] = Assay 1. Stability in Simulated Gastric Fluid (SGF); type: in vitro ADME; settings: SGF pH 1.6 with pepsin, 1 μM, 37° C.
Procedure: Assay 1. Stability of conjugates in Simulated Gastric Fluid (SGF). This assay was used to assess the stability of an acylated cinnamic acid in a stomach.
Medium was prepared by dissolving 2 g of sodium chloride in 0.6 L in ultrapure water (MilliQ®, Millipore Sigma, Darmstadt, Germany). The pH was adjusted to 1.6 with 1N hydrochloric acid, and the volume was then adjusted to 1 L with purified water.
60 mg FaSSIF powder (Biorelevant™, London, UK) were dissolved in 500 mL buffer (above). Pepsin was added (0.1 mg/mL) (Millipore Sigma, Darmstadt, Germany), and the solution was stirred. The resulting SGF media were used fresh for each experiment.
A test compound was dissolved in DMSO stock to 1 mM. An aliquot of the DMSO stock solution was removed and diluted in the SGF Media in 15 mL falcon tubes to generate a total compound concentration of 1 μM. A 1 mL aliquot was immediately removed and diluted once with 1 volume of acetonitrile for T0 timepoint. The mixture was sealed and mixed at 37° C. in an incubator. Aliquots (1 mL) were removed at regular intervals and immediately quenched by the addition of 1 volume of acetonitrile. The resulting samples were analyzed by LC/MS to determine degradation rates in SGF.

[3] = Assay 2. Stability in Simulated Intestinal Fluid (SIF); type: in vitro ADME; settings: SIF pH 6.7 with pancreatin, 1 μM, 37° C.
Procedure: Assay 2. Stability of conjugates in Simulated Intestinal Fluid (SIF). This assay was used to assess the stability of an acylated cinnamic acid in a small intestine.
Phosphate buffer was prepared by dissolving 0.42 g of sodium hydroxide pellets and 3.95 g of monobasic sodium phosphate monohydrate and 6.19 g of sodium chloride in ultrapure water (MilliQ®, Millipore Sigma, Darmstadt, Germany). The pH was adjusted to 6.7 using aq. HCl and aq. NaOH, as necessary, and the solution was diluted with ultrapure water to produce 1 L of the pH 6.7 buffer.
112 mg FaSSIF powder (Biorelevant™, London, UK) was dissolved in 50 mL of the pH 6.7 buffer. 2 to 3 mL of the resulting solution were then added to 500 mg pancreatin (Millipore Sigma, Darmstadt, Germany). The resulting mixture was agitated by finger tapping the vessel containing the mixture until milky suspension formed. At this time, the remainder of the 50 mL FaSSiF/pH 6.7 buffer solution was added. The resulting suspension was flipped upside down 10 times to produce SIF, which was used fresh.
A test compound was dissolved in DMSO stock to 1 mM. An aliquot of the DMSO stock solution was removed and diluted in the SIF media in 15 mL falcon tubes to produce a mixture with a tested compound concentration of 1 μM. […] The resulting samples were analyzed by LC/MS to determine degradation rates

[4] = Assay 3. In vitro Colonic Material Stability Assay; type: in vitro ADME; settings: colonic material slurry, anaerobic, 1 or 10 μM
Procedure: Assay 3. In vitro Colonic Material Stability Assay. This assay was used to assess the stability of an acylated cinnamic acid in a large intestine. All experiments were performed in an anaerobic chamber containing 90% nitrogen, 5% hydrogen and 5% carbon dioxide. Colonic material was resuspended as a slurry (15% w/v final concentration) in pre-reduced, anaerobically sterilized dilution blanks (Anaerobe Systems AS-908). The colonic material was then inoculated into 96 well plates containing YCFAC media (Anaerobe Systems AS-680) or other suitable media (6.7 μL slurry into 1 mL total media). A test compound was added to an individual well to reach a final analyte concentration of 1 or 10 μM, and the material was mixed by pipetting. Sample was removed after set timepoints (0, 120, 240, 480, 1440, 2880 minutes after initiation of the assay), quenched with acetonitrile containing internal standard, and analyzed by LC/MS.

C57BL/6 mice = assay: In vivo evaluation in mice fed a high-fat diet (84-day study); parameters: species or system mouse
Procedure: Animals were allowed free access to food and drinking water for the entire study. Animals were weighed on a regular basis, and food and drinking water consumption monitored. Plasma and stool samples were collected at the beginning of the study and 42 days into the study. Additional blood was drawn from fasted mice 58 days into the study. Insulin tolerance tests were performed 72 or 73 days into the study. Following an approximate 4 h fast, 0.5 Units/kg insulin was administered intraperitoneally. Blood was collected pre-insulin challenge (t=0) and at t=15, 30, 60, 90, and 120 min following insulin challenge. Oral glucose tolerance tests were performed 79 or 80 days into the study. Following an approximate 4 h fast, 2 g/kg glucose was administered by oral gavage. Blood was collected pre-insulin challenge (t=0) and at t=15, 30, 60, 90, and 120 min following glucose challenge. At the end of the study, body weight, food consumption, blood glucose, serum ALT levels, serum AST levels, serum cholesterol (total cholesterol. HDL, and LDL levels), serum triglycerides levels, liver triglyceride levels, liver cholesterol levels, liver weight, subcutaneous fat pad weight, and epididymal fat pad weight were measured in all mice.

CC(=O)O [Acetic acid]
Lipolysis Free Fatty Acids % DMSO ([1]; 1 mM): ++ (50 >≤ 70%: ++)
Lipolysis Glycerol % change ([1]; 1 mM): + (70% >≤90%: +)
Lipolysis Free Fatty Acids % DMSO ([1]; 3 mM): ++ (50 >≤ 70%: ++)
Lipolysis Glycerol % change ([1]; 3 mM): + (70% >≤90%: +)
Free glycerol % DMSO (mouse myocyte; 1 mM): = (90% >< 100%: =)
Free glycerol % DMSO (mouse myocyte; 3 mM): = (90% >< 100%: =)

CCCC(=O)O [Butyric acid]
Lipolysis Free Fatty Acids % DMSO ([1]; 3 mM): ++ (50 >≤ 70%: ++)
Lipolysis Glycerol % change ([1]; 3 mM): ++ (50 >≤ 70%: ++)
Free glycerol % DMSO (mouse myocyte; 3 mM): +++ (50%<: +++)

O=C(O)/C=C/c1ccc(O)c(O)c1 [Caffeic acid]
Lipolysis Free Fatty Acids % DMSO ([1]; 100 μM): +++ (50%≤: +++)
Lipolysis Glycerol % change ([1]; 100 μM): +++ (50%≤: +++)
Free glycerol % DMSO (mouse myocyte; 100 μM): +++ (50%<: +++)

CCC(=O)O [Propionic acid]
Lipolysis Free Fatty Acids % DMSO ([1]; 3 mM): +++ (50%≤: +++)
Lipolysis Glycerol % change ([1]; 3 mM): ++ (50 >≤ 70%: ++)
Free glycerol % DMSO (mouse myocyte; 3 mM): ++ (50 >< 70%: ++)

CC(=O)Oc1ccc(/C=C/C(=O)O)cc1OC(C)=O [compound 3, diacetyl caffeic acid]
Assay 1 (SGF) (% Remaining @ 1 hour) [2]: C (>75% of the tested compound remaining)
Assay 2 (SIF) (% @ Remaining 4 hours) [3]: A (<25% of the tested compound remaining)
Assay 3 (% Remaining at 24 h) [4]: A (<25% of the tested compound remaining)

CC(=O)O[C@@H]1OC[C@@H](OC(C)=O)[C@H](OC(C)=O)[C@H]1OC(C)=O [compound 4]
metabolic markers (e.g., glucose tolerance, insulin tolerance, cholesterol levels) (C57BL/6 mice; mice fed high-fat diet + test article): improve metabolic markers
weight loss (C57BL/6 mice; mice fed high-fat diet, over the study): induce weight loss
